Our source for the IC50 values is BindingDB's records for doi:10.1111/j.1747-0285.2011.01199.x (Sanford-Burnham Medical Research Institute, 2011).

In the experiment the target is T1, Ephrin type-A receptor 4 [1-949,A922V] (Homo sapiens, UniProt P54764, A922V).
T1 construct: 1-949
Briefly: Enzyme-linked Immunosorbent Assay. The note with it: pH 7.5. The protocol:
Protein A-coasted wells (from Pierce Biotechnology) were used to immobilize Eph receptor Fc fusion proteins (from R&D systems)incubated at 1 ug/ml in TBST.
As a reminder, the IC50 is the midpoint of a concentration-inhibition curve. Read a high IC50 as a need for much substance. As to `O=C(O)/C=C/c1ccc(-c2ccc(O)c(C(=O)O)c2)o1` [Salicylic acid derivative, 76A5], the IC50 was more than 500 µM.

`Cc1ccc(C)n1-c1ccc(O)c(C(=O)O)c1` [Salicylic acid derivative, compound 2] had an IC50 of 10 µM.

Consider `O=C(/C=C/c1ccc(-c2ccc(O)c(C(=O)O)c2)o1)/C=C/c1ccc(-c2ccc(O)c(C(=O)O)c2)o1` [Salicylic acid derivative, 76D10], for which the half-inhibitory concentration (IC50) was determined as 2.6 µM.

On to `O=C(O)c1ccc(-c2ccc(O)c(C(=O)O)c2)o1` [Salicylic acid derivative, 76B8], for which the concentration for half-maximal inhibition (IC50) is more than 500 µM.

The compound `Cc1ccc(C)n1-c1ccc(C(=O)O)c(O)c1` [4-(2,5-dimethyl-1H-pyrrol-1-yl)-2-hydroxybenzoic acid] displayed an IC50 of 1.3 µM.
